Where “and” joins values, the source holds several entries; their conditions need not be identical. Equal entries are not always repeated. Where two headings read alike, the source gives them in different places.
Tests used:
[1] = test system: Klebsiella pneumoniae (KPN) isolates; test: MIC of compounds alone and combined with antibacterials, broth microdilution (CLSI); assay type: cell-based
Outline: (§1)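 Antibacterial MICs in combination were determined at every compound concentration tested, alongside compound MICs alone. Bacteria grew in cation-adjusted Mueller-Hinton broth starting from 5.10^5 CFU/mL, incubated at 35° C for 16-20 h, and endpoints were the lowest concentrations with no visible growth.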

[2] = test system: Escherichia coli (ECO) isolates; test: as above; assay type: cell-based
Outline: as §1

CC1(C)S[C@@H]2[C@H](NC(=O)[C@H](N)c3ccc(O)cc3)C(=O)N2[C@H]1C(=O)O [AMX, Amoxicillin]
MIC [1]: >128 mg/L | MIC ATB in combination [1]: >128 mg/L and 128 mg/L and <128 mg/L | MIC ATB in combination ([1]; KPN 6299, AF2 @ 8 μg/mL): 2 mg/L | MIC ATB in combination ([1]; KPN 6299, CLA @ 4 μg/mL): >512 mg/L | MIC ATB in combination ([1]; KPN 110376, AF2 @ 8 μg/mL): 0.5 mg/L | MIC ATB in combination ([1]; KPN 131119, CLA @ 4 μg/mL): >512 mg/L | MIC ATB in combination ([1]; KPN 160143, AF2 @ 8 μg/mL): <0.25 mg/L | MIC ATB in combination ([1]; KPN 190551, AF2 @ 8 μg/mL): <0.25 mg/L | MIC ATB in combination ([1]; KPN 200047, AF2 @ 8 μg/mL): <0.25 mg/L | MIC ATB in combination ([1]; KPN 200047, CLA @ 4 μg/mL): 32 mg/L | MIC ATB in combination ([1]; KPN 200327, AF2 @ 8 μg/mL): <0.25 mg/L | MIC ATB in combination ([1]; KPN 200327, CLA @ 4 μg/mL): 32 mg/L | MIC ATB in combination ([1]; KPN 260251, AF2 @ 8 μg/mL): 4 mg/L | MIC ATB in combination ([1]; KPN 260376, AF2 @ 8 μg/mL): <0.25 mg/L | MIC ATB in combination ([1]; KPN 270077, AF2 @ 8 μg/mL): 32 mg/L | MIC ATB in combination ([1]; KPN 270077, CLA @ 4 μg/mL): 32 mg/L | MIC ATB in combination ([1]; KPN 700603, AF2 @ 8 μg/mL): 4 mg/L | MIC ATB in combination ([1]; KPN 700603, CLA @ 4 μg/mL): 8 mg/L | MIC ATB in combination ([1]; KPN ARA, AF2 @ 8 μg/mL): <=0.25 μg/mL | MIC ATB in combination ([1]; KPN BAA-1898, CLA @ 4 μg/mL): >512 mg/L | MIC ATB in combination ([1]; KPN LIB, AF2 @ 8 μg/mL): <=0.25 μg/mL | MIC ATB in combination ([1]; KPN LIB, CLA @ 4 μg/mL): >512 mg/L | MIC ATB in combination ([1]; KPN UFR22_O, AF2 @ 8 μg/mL): 0.5 mg/L | MIC ATB in combination ([1]; KPN UFR23, AF2 @ 8 μg/mL): 4 mg/L | MIC ATB in combination ([1]; KPN UFR24, AF2 @ 8 μg/mL): 32 mg/L | MIC ATB in combination ([1]; KPN UFR25, AF2 @ 8 μg/mL): <0.25 mg/L | MIC ATB in combination ([1]; KPN UFR28, AF2 @ 8 μg/mL): <=0.25 μg/mL | MIC ATB in combination ([1]; KPN UFR33, AF2 @ 8 μg/mL): 8 mg/L | MIC ATB in combination ([1]; KPN UFR43, AF2 @ 8 μg/mL): <0.25 mg/L | MIC ATB in combination ([1]; KPN UFR53, AF2 @ 8 μg/mL): <0.25 mg/L | MIC ATB in combination ([1]; KPN UFR77, AF2 @ 8 μg/mL): <0.25 mg/L | MIC ATB in combination ([1]; KPN UFR80, AF2 @ 8 μg/mL): 64 mg/L | MIC ATB in combination ([1]; KPN UFR218, CLA @ 4 μg/mL): 32 mg/L | MIC ([1]; strain KPN 6299, genotype TEM-1, SHV-11, OXA-163): >1024 mg/L | MIC ([1]; strain KPN 110376, genotype TEM-1, SHV-1, CTX-M-15, OXA-1, OXA-48): >256 mg/L | MIC ([1]; strain KPN 121206, genotype SHV-1, NDM-1): >256 mg/L | MIC ([1]; strain KPN 131119, genotype TEM-1, SHV-11, CTX-M-15, OXA-1, OXA-48): >256 mg/L | MIC ([1]; strain KPN 140347, genotype CTX-M-15, NDM-1, antibiotic alone): >128 mg/L | MIC ([1]; strain KPN 140513, genotype TEM-1, SHV-11, CTX-M-15, KPC-3): >256 mg/L | MIC ([1]; strain KPN 160143, genotype TEM-1, SHV-1, CTX-M-15, KPC-2, OXA-1): >256 mg/L | MIC ([1]; strain KPN 190128, genotype TEM-1, SHV-32, CTX-M-15, OXA-1): >256 mg/L | MIC ([1]; strain KPN 190270, genotype TEM-1, SHV-76, CTX-M-15, OXA-1): >256 mg/L | MIC ([1]; strain KPN 190425, genotype TEM-1, SHV-1, CTX-M-15, OXA-1): >256 mg/L | MIC ([1]; strain KPN 190551, genotype TEM-1, SHV-1, CTX-M-15, OXA-1): >256 mg/L | MIC ([1]; strain KPN 200047, genotype TEM-1, SHV-32, CTX-M-15, OXA-1): >256 mg/L | MIC ([1]; strain KPN 200327, genotype TEM-1, SHV-1, CTX-M-15, OXA-1): >256 mg/L | MIC ([1]; strain KPN 260251, genotype TEM-1, SHV-11, SHV-12, CTX-M-15, KPC-2): >256 mg/L | MIC ([1]; strain KPN 260252, genotype TEM-1, SHV-11, KPC-3): >256 mg/L | MIC ([1]; strain KPN 260376, genotype SHV-1, SHV-49, OXA-1): >256 mg/L | MIC ([1]; strain KPN 270077, genotype TEM-1, SHV-1, CTX-M-15): >256 mg/L | MIC ([1]; strain KPN 700603, genotype SHV-18, OXA-2): >256 mg/L | MIC ([1]; strain KPN ARA, genotype TEM-1, SHV-11, CTX-M-15, OXA-1, OXA-48): >256 mg/L | MIC ([1]; strain KPN BAA-1898, genotype TEM-1, SHV-11, SHV-12, KPC-2): >1024 mg/L | MIC ([1]; strain KPN LIB, genotype SHV-11, OXA-48): >256 mg/L | MIC ([1]; strain KPN UFR22_O, genotype TEM-1, SHV-1, OXA-48): >256 mg/L | MIC ([1]; strain KPN UFR23, genotype TEM-1, SHV-1, OXA-48): >256 mg/L | MIC ([1]; strain KPN UFR24, genotype TEM-1, SHV-2, SHV-11, OXA-1, OXA-48, OXA-47): >256 mg/L | MIC ([1]; strain KPN UFR25, genotype TEM-1, SHV-11, CTX-M-15, OXA-162): >256 mg/L | MIC ([1]; strain KPN UFR27, genotype TEM-1, SHV-28, CTX-M-15, OXA-204): >256 mg/L | MIC ([1]; strain KPN UFR28, genotype TEM-1, SHV-1, CTX-M-15, OXA-1, OXA-232): >256 mg/L | MIC ([1]; strain KPN UFR33, genotype TEM-2, SHV-12, CTX-M-15, OXA-1, OXA-10): >256 mg/L | MIC ([1]; strain KPN UFR42, genotype SHV-2, CTX-M-15 OXA-1, OXA-181, NDM-1): >256 mg/L | MIC ([1]; strain KPN UFR43, genotype SHV-11, CTX-M-15, CMY-2, OXA-1, NDM-1): >256 mg/L | MIC ([1]; strain KPN UFR46, genotype TEM-1, SHV-12, CTX-M-15, OXA-9, VIM-1): >256 mg/L | MIC ([1]; strain KPN UFR53, genotype TEM-1, IMP-1): >256 mg/L | MIC ([1]; strain KPN UFR65, genotype TEM-1, SHV-11, KPC-2): >256 mg/L | MIC ([1]; strain KPN UFR66, genotype TEM-1, SHV-11, CTX-M-15, KPC-2): >256 mg/L | MIC ([1]; strain KPN UFR67, genotype TEM-1, SHV-11, KPC-3): >256 mg/L | MIC ([1]; strain KPN UFR68, genotype TEM-1, SHV-11, CTX-M-15, KPC-3): >1024 mg/L | MIC ([1]; strain KPN UFR76, genotype TEM-155, SHV-11, ACT-1, OXA-2): >256 mg/L | MIC ([1]; strain KPN UFR77, genotype CMY-2): >256 mg/L | MIC ([1]; strain KPN UFR78, genotype TEM-1, SHV-1, CTX-M-15, CMY-2, OXA-1, OXA-48): >256 mg/L | MIC ([1]; strain KPN UFR79, genotype DHA-1, OXA-1): >256 mg/L | MIC ([1]; strain KPN UFR80, genotype SHV-11, DHA-1, OXA-1): >256 mg/L | MIC ([1]; strain KPN UFR81, genotype TEM-1, SHV-1, DHA-1, OXA-48): >256 mg/L | MIC ([1]; strain KPN UFR162, genotype SHV-28, TEM-1, CTX-M-15, OXA-181, OXA-181, NDM-1, antibiotic alone): >128 mg/L | MIC ([1]; strain KPN UFR163, genotype TEM-1, SHV-1, CTX-M-15, OXA-232, OXA-9, NDM-1, qnrB1, qepA, RmtB, antibiotic alone): >128 mg/L | MIC ([1]; strain KPN UFR164, genotype SHV-11, CTX-M-15, OXA-1, OXA-181, NDM-1, antibiotic alone): >128 mg/L | MIC ([1]; strain KPN UFR165, genotype TEM-1, SHV-11, CTX-M-15, OXA-1, OXA-181, NDM-1, antibiotic alone): >128 mg/L | MIC ([1]; strain KPN UFR166, genotype TEM-1, TEM-1, CTX-M-15, OXA-181, OXA-9, NDM-1, antibiotic alone): >128 mg/L | MIC ([1]; strain KPN UFR167, genotype TEM-1, SHV-12, CTX-M-15, OXA-9, NDM-1, antibiotic alone): >128 mg/L | MIC ([1]; strain KPN UFR168, genotype SHV-2, CTX-M-15, OXA-1, OXA-181, NDM-1, ArmA, antibiotic alone): >128 mg/L | MIC ([1]; strain KPN UFR169, genotype TEM-1, SHV-28, CTX-M-15, CMY-4, OXA-1, NDM-1, antibiotic alone): >128 mg/L | MIC ([1]; strain KPN UFR170, genotype TEM-1, SHV-28, CTX-M-15, CMY-6, OXA-1, OXA-9, NDM-1, antibiotic alone): >128 mg/L | MIC ([1]; strain KPN UFR171, genotype TEM-1, SHV-28, CTX-M-15, OXA-1, OXA-10, NDM-1, RmtA, antibiotic alone): >128 mg/L | MIC ([1]; strain KPN UFR172, genotype SHV-38, CMY-16, OXA-10, NDM-1, antibiotic alone): >128 mg/L | MIC ([1]; strain KPN UFR215, genotype SHV-27, CTX-M-15): >128 mg/L | MIC ([1]; strain KPN UFR216, genotype SHV-28, CTX-M-15): >128 mg/L | MIC ([1]; strain KPN UFR217, genotype TEM-1, SHV-1, CTX-M-15): >128 mg/L | MIC ([1]; strain KPN UFR219, genotype SHV-12, CTX-M-15): >128 mg/L | MIC ([1]; strain KPN UFR220, genotype TEM-1, SHV-12, DHA-1): >128 mg/L | MIC ([1]; strain KPN UFR221, genotype TEM-1, SHV-11, CTX-M-14, DHA-1): >128 mg/L | MIC ([1]; strain KPN UFR229O, genotype SHV-12, VIM-1, antibiotic alone): >128 mg/L | MIC ATB in combination [2]: >128 mg/L and 128 mg/L | MIC ATB in combination ([2]; ECO 4133, AF2 @ 8 μg/mL): <0.25 mg/L | MIC ATB in combination ([2]; ECO 5302, AF2 @ 8 μg/mL): <0.25 mg/L | MIC ATB in combination ([2]; ECO 131119, AF2 @ 8 μg/mL): <0.25 mg/L
